From patent publication US8575218B2, “Thiol-containing compounds for the removal of elements from tissues and formulations therefor” (priority 2009, dated 2013)

How the values were obtained:
goldfish = assay: Exposure of goldfish to mercuric acetate with and without chelators; format: in vivo
Method: Individual goldfish were placed in 200 ml water with 10 mM sodium chloride in 250 ml Erlenmeyer flasks (pH 7.00). Air was pumped into the flasks to maintain a healthy supply of oxygen. The 24 hour day was divided in to a 12 hour light/dark photoperiod. The goldfish were allowed to acclimatize for a week before the experiment was conducted, with daily water changes. Goldfish were fed standard fish food for 15 minutes each day before the water was changed.
The chelate ligands were dissolved in dimethyl sulfoxide (DMSO, 0.5 ml) before addition to the flasks. The experimental treatments evaluated are as listed in Table 1 below, and included mercuric acetate, B9, EEAB9, GB9, GEEAB9, and DMSO in the amounts shown in Table 1. B9 and EEAB9 were dissolved in DMSO (0.5 ml) before addition to the water. No precipitate was formed during the dissolution.

[1] = Solubility of isolated product in solvents; format: physicochemical

Structure (SMILES)	Goldfish state (Alive/Dead) at 30 min (goldfish; mercuric acetate 0.5 mM + DMSO 0.5 ml)	Goldfish state (Alive/Dead) at 30 min (goldfish; mercuric acetate 0.5 mM alone)	Time to death of goldfish (goldfish; mercuric acetate without chelator) [min]	Solubility in solvents [1]
CC(=O)[O-].CC(=O)[O-].[Hg+2] [Mercuric acetate]	Dead	Dead	≤ 30	–
NC(CCC(=O)NC(CSSCCNC(=O)c1cccc(C(=O)NCCSSCC(NC(=O)CCC(N)C(=O)O)C(=O)NCC(=O)O)c1)C(=O)NCC(=O)O)C(=O)O (stereo not shown) [GB9]	–	–	–	readily dissolved in water
